*1 amine or outer side, *2 acyl side, *3 side chain or, on linkers, in order; H or OH if unused. Where a SMILES comes first, the peptide text is derived from it. The star is where a group is joined. X1 = O=C(CCCC[C@@H]1SC[C@@H]2NC(=O)N[C@@H]21)NCCCOCCOCCOCCCN*; Suc = O=C(CCC(=O)[*:2])[*:1]
Tests used:
[1] = target: isolated PDZ domain of SNX27; settings: 10-mer PBM peptide vs isolated PDZ domain, holdup; cited from earlier work
SCRIB PDZ1 = settings: fragmentomic, isolated PDZ domain; cited from earlier work
Text: Supplement sciadv.ade3828_table_s1.zip/sciadv.ade3828_table_s1.xlsx, sheet "nHU-WB_SP" | column: Domain-motif fragmentomic affinities (ProfAff)

SCRIB PDZ2 = settings: fragmentomic, isolated PDZ domain; cited from earlier work
Text: (§1) Supplement sciadv.ade3828_table_s1.zip/sciadv.ade3828_table_s1.xlsx, sheet "nHU-WB_SP"

SCRIB PDZ3 = settings: fragmentomic, isolated PDZ domain; cited from earlier work
Text: as §1

SCRIB PDZ4 = settings: fragmentomic, isolated PDZ domain; cited from earlier work
Text: as §1

[2] = target: endogenous full-length SCRIB (Homo sapiens, UniProt Q14160); type: binding; settings: titration, Jurkat extract
[3] = target: isolated PDZ domain of SNX27; settings: calorimetry; cited from earlier work
SNX27_PDZ [4] = experiment: nHU-MS, SNX27_PDZ bait, total SH-SY5Y extracts; type: binding, human; settings: for pKapp_HU_not_filtered / pKapp_significant_binders_HU: apparent; for pKapp_HU_not_filtered: Eq. 2, not filtered for significance; for pKapp_significant_binders_HU: Eq. 2, significant binders (1 σ, P < 0.05); for BI_HU / FC_HU (log2 fold change) / Ratio_HU: n = 6
Procedure: (§2) The empty His6-AviTag-MBP-TEV vector was used to produce biotinylated MBP for control experiments. Proteins were coexpressed with BirA biotin ligase (PET21a-BirA, Addgene, no. 20857) in Escherichia coli BL21(DE3) cells. At isopropyl-β-D-thiogalactopyranoside (IPTG) induction (1 mM IPTG at 18°C overnight), 50 μM biotin was added to the media. Harvested cells were lysed in a buffer containing 50 mM tris (pH 7.5), 150 to 300 mM NaCl, 50 μM biotin, 2 mM β-mercaptoethanol, cOmplete EDTA-free protease inhibitor cocktail (Roche, Basel, Switzerland), 1% Triton X-100, and trace amount of deoxyribonuclease, ribonuclease, and lysozyme. Lysates were frozen at −20°C before further purification steps. Lysates were sonicated and centrifuged for clarification. Expressed proteins were captured on in-house prepacked Ni-IDA (Protino Ni-IDA Resin, Macherey-Nagel, Duren, Germany) columns and were washed with at least 10 column volumes of cold wash buffer [50 mM tris (pH 7.5), 150 mM NaCl, and 2 mM β-mercaptoethanol] before elution with 250 mM imidazole. The Ni elution was collected directly on a preequilibrated amylose column (amylose high flow resin, New England Biolabs, Ipswich, MA). Amylose column was washed with 5 column volumes of cold wash buffer before fractionated elution in a buffer containing 25 mM Hepes (pH 7.5), 150 mM NaCl, 1 mM TCEP, 10% glycerol, 5 mM maltose, and cOmplete EDTA-free protease inhibitor cocktail. The concentration of proteins was determined by their ultraviolet absorption at 280 nm before aliquots were snap-frozen in liquid nitrogen and stored at −80°C.
(§3) For saturating streptavidin resin with biotinylated peptides or biotin, 50 μl of streptavidin resin was mixed with biotin or peptide at 40 to 60 μM concentration in 6 to 6.5 resin volume for 60 min. To saturate streptavidin resin with biotinylated proteins, 50 μl of streptavidin resin (Streptavidin Sepharose High Performance, Cytiva) was mixed with biotinylated MBP or MBP-PDZ at 40 to 50 μM concentration in 20× resin volume for 60 min. After saturation, resins were washed a single time [10 resin volume, holdup buffer: 50 mM tris (pH 7.5), 300 mM NaCl, and 1 mM TCEP, 0.22-μm filtered] and were depleted with biotin (10 resin volume, 10 min, holdup buffer supplemented with 100 μM biotin). Last, resins were washed two times (10 resin volume, holdup buffer).
(§4) For single-point nHU experiments carried out at ~10 μM bait concentration, 50 μl of saturated streptavidin resin was mixed with 200 μl of cell lysate (2 mg/ml). Titration experiments were carried out by mixing control and bait-saturated resin and keeping the total resin volume constant; e.g., ~5 μM bait concentration can be achieved by mixing 25 μl of bait-saturated streptavidin resin with 25 μl of control resin and 200 μl of cell lysate (2 mg/ml). Control and bait-saturated resins were prepared in larger amounts, and a serial dilution was prepared with these presaturated resins to achieve different resin ratios.
(§5) Unless specified elswhere, the nHU mixture was incubated at 4°C for 2 hours. After the incubation ended, the resin was separated from the supernatant by a brief centrifugation (15 s, 2000 g). Then, half of the supernatant was removed by pipetting without any delay to avoid any resin contamination; e.g., 100 μl of supernatant is collected if 200 μl of cell lysate was used as analyte. Alternatively, the supernatant can be centrifuged an additional time to clarify it further, removing any possible resin contamination. In principle, the separation of the supernatant should be as fast as possible since any delay can perturb the equilibrium. […] Alternatively, the resin can be separated from the supernatant using filter plates (e.g., various products of Millipore, Burlington, MA) or spin columns (e.g., Pierce spin cups—cellulose acetate filter from Thermo Fisher Scientific, Waltham, MA) to achieve faster separation. […]

SNX27_PDZ [5] = experiment: AP-MS control pull-down on leftover resin, SNX27_PDZ bait, total SH-SY5Y extracts; type: binding, human; settings: n = 6
Procedure: (§6) Leftover beads from nHU-MS experiments were washed three times immediately after the separation of the supernatant [10 resin volume in buffer containing 50 mM tris (pH 8.5), 150 mM NaCl, 1% Triton X-100, 10× cOmplete EDTA-free protease inhibitor cocktail, 2 mM EDTA, and 1 mM TCEP]. Then, the beads were washed two times [10 resin volume buffer containing 50 mM tris (pH 8.5), 150 mM NaCl, and 1 mM TCEP]. Last, captured protein was eluted from the resin in two steps, and the eluted fractions were pooled. For each elution, the beads were incubated for 30 min with three resin volume buffer containing 20 mM tris (pH 8.5), 100 mM NaCl, 500 μM TCEP, and 8 M urea. Between each step, the beads were separated by mild centrifugation, and the supernatant was removed by gentle pipetting.
(§7) The nHU samples were precipitated with trichloroacetic acid (TCA) 20% overnight at 4°C and centrifuged at 14,000 rpm for 10 min at 4°C. The protein pellets were washed twice with 1 ml of cold acetone and air-dried. The protein extracts were solubilized in 8 M urea, reduced with 5 mM TCEP for 30 min, and alkylated with 10 mM iodoacetamide for 30 min in the dark. Double digestion was performed at 37°C with 500 ng of endoproteinase Lys-C (Wako, Richmond, USA) for 4 hours, followed by fourfold dilution and an overnight digestion with 500 ng of trypsin (Promega, Charbonnieres les Bains, France). Peptide mixtures were then desalted on a C18 spin-column and dried on a speed vacuum.
(§8) Samples were analyzed using an Ultimate 3000 nano-RSLC coupled in line via a nano-electrospray ionization source, with an LTQ-Orbitrap ELITE mass spectrometer (Thermo Fisher Scientific, San Jose, CA) or with the Orbitrap Exploris 480 mass spectrometer (Thermo Fisher Scientific, Bremen, Germany) equipped with a high field asymmetric ion mobility spectrometry (FAIMS) module. Peptide mixtures were injected in 0.1% trifluoroacetic acid on a C18 Acclaim PepMap100 trap column [75 μm inner diameter (ID) × 2 cm, 3 μm, 100 Å, Thermo Fisher Scientific] for 3 min at 5 μl/min with 2% acetonitrile (ACN) and 0.1% formic acid (FA) in H2O and then separated on a C18 Acclaim PepMap100 nano-column (75 μm ID × 50 cm, 2.6 μm, 150 Å, Thermo Fisher Scientific) at 300 nl/min and 40°C with a 90-min linear gradient from 5 to 30% buffer B (A: 0.1% FA in H2O/B: 80% ACN, 0.1% FA in H2O) and regeneration at 5% B. Spray voltage was set to 2.1 kV and heated capillary temperature was set to 280°C.
For the Orbitrap Elite, the mass spectrometer was operated in positive ionization mode in data-dependent mode with survey scans from mass/charge ratio (m/z) 350 to 1500 acquired in the Orbitrap at a resolution of 120,000 at m/z 400. […]

SNX27_PDZ [6] = experiment: nHU-MS, SNX27_PDZ bait, total Jurkat extracts, series 1; type: binding, human
Procedure: as §2, §3, §4, §5

SNX27_PDZ [7] = experiment: AP-MS control pull-down on leftover resin, SNX27_PDZ bait, total Jurkat extracts; type: binding, human
Procedure: as §6, §7, §8
For the Orbitrap Elite, the mass spectrometer was operated in positive ionization mode in data-dependent mode with survey scans from mass/charge ratio (m/z) 350 to 1500 acquired in the Orbitrap at a resolution of 120,000 at m/z 400. The 20 most intense peaks from survey scans were selected for further fragmentation in the linear ion trap with an isolation window of 2.0 Da and were fragmented by collision-induced dissociation (CID) with a normalized collision energy of 35% (TOP 20 CID method). Unassigned and single-charged states were excluded from fragmentation. The ion target value for the survey scans (in the Orbitrap) and the MS2 mode (in the linear ion trap) were set to 1E6 and 5E3, respectively, and the maximum injection time was set to 100 ms for both scan modes. Dynamic exclusion was set to 20 s after one repeat count with mass width at ±10 parts per million (ppm). […]

full-length SNX27 = experiment: nHU-MS, recombinant full-length SNX27 bait, total Jurkat extracts; type: binding, human; settings: apparent, Fig. 4D, n = 6
Procedure: as §2, with “Amylose column was washed with 5 column volumes of cold wash buffer before fractionated elution in a buffer containing 25 mM Hepes (pH 7.5), 150 mM NaCl, 1 mM TCEP, 10% glycerol, 5 mM maltose, and cOmplete EDTA-free protease inhibitor cocktail.” left out, “−80°C. […]” for “−80°C.”

[8] = Jurkat, series 1, leftover resin, n = 6

Sequence of endogenous full-length SCRIB (Q14160 whole entry, the tested form may be a part): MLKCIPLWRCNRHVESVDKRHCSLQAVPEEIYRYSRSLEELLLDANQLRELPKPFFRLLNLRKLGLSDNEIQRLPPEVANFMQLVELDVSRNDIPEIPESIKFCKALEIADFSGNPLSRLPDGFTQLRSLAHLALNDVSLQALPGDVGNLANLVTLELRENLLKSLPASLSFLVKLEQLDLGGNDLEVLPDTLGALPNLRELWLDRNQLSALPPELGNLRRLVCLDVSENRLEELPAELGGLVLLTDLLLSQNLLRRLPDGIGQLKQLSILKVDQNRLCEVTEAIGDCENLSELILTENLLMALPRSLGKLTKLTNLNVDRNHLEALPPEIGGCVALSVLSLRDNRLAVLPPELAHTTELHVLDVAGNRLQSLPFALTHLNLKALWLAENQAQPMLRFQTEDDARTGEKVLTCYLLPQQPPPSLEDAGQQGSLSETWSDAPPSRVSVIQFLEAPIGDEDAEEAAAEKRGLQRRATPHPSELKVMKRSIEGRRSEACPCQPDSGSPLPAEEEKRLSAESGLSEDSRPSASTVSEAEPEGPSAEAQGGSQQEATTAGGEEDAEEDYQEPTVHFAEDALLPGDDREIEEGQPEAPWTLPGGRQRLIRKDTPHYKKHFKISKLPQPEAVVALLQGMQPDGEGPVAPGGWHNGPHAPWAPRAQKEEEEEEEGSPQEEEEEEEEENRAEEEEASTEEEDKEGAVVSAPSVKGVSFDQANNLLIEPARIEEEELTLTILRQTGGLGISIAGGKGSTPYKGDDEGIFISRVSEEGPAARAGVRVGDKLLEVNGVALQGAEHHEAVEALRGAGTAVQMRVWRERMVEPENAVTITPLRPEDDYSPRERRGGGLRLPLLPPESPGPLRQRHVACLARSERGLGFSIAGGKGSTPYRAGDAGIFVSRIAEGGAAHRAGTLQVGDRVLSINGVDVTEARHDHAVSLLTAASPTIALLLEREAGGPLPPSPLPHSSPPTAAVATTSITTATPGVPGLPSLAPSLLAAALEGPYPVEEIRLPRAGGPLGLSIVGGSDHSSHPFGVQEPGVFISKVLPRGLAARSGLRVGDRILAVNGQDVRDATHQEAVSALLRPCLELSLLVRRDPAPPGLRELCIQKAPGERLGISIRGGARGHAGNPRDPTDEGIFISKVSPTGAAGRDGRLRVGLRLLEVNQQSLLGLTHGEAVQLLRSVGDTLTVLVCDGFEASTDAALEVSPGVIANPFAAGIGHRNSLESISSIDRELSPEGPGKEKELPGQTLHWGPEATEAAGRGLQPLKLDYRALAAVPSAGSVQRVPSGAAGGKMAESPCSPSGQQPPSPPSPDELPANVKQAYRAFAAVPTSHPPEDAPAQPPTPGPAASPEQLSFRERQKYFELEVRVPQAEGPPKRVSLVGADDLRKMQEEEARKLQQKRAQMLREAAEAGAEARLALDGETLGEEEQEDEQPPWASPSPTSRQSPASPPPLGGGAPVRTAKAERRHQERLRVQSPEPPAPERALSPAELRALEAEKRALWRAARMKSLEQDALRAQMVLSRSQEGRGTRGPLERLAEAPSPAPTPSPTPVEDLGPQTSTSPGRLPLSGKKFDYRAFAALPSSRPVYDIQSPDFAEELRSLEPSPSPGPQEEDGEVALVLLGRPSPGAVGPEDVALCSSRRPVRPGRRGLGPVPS

Molecule: CC(C)C[C@H](NC(=O)[C@H](CO)NC(=O)[C@H](CO)NC(=O)CCC(=O)NCCCOCCOCCOCCCNC(=O)CCCC[C@@H]1SC[C@@H]2NC(=O)N[C@@H]21)C(=O)N[C@@H](CCC(N)=O)C(=O)N[C@@H](CO)C(=O)N[C@@H](CC(C)C)C(=O)N[C@@H](CCC(=O)O)C(=O)N[C@H](C(=O)N[C@@H](CO)C(=O)N[C@H](C(=O)O)C(C)C)[C@@H](C)O [ATP2B4] ({X1-Suc}-SSLQSLETSV-OH; C-terminus assumed)
- pKd (fragmentomic affinity) [1]: 5.70
- pKd_PDZ1 (SCRIB PDZ1): 5.03
- pKd_PDZ2 (SCRIB PDZ2): 4.90
- pKd_PDZ3 (SCRIB PDZ3): 5.11
- pKd_PDZ4 (SCRIB PDZ4): 4.38

Molecule: CC[C@H](C)[C@H](NC(=O)CCC(=O)NCCCOCCOCCOCCCNC(=O)CCCC[C@@H]1SC[C@@H]2NC(=O)N[C@@H]21)C(=O)N[C@@H](CCC(N)=O)C(=O)N[C@@H](CCCNC(=N)N)C(=O)N[C@@H](CCC(=O)O)C(=O)N[C@@H](CC(=O)O)C(=O)N[C@@H](CCC(N)=O)C(=O)N[C@@H](CCC(=O)O)C(=O)N[C@H](C(=O)N[C@@H](C)C(=O)N[C@H](C(=O)O)C(C)C)[C@@H](C)O [DGKZ] ({X1-Suc}-IQREDQETAV-OH; C-terminus assumed)
- Hill coefficient ([2]; Hill equation fit, three replicates): 0.6
- cooperativity [2]: negative cooperativity
- pKd (fragmentomic affinity) [1]: 6.0
- pKd [3]: 5.7
- pKd_PDZ1 (SCRIB PDZ1): 4.71
- pKd_PDZ2 (SCRIB PDZ2): 4.86
- pKd_PDZ3 (SCRIB PDZ3): 5.05
- pKd_PDZ4 (SCRIB PDZ4): 4.40

Molecule: ELOC: Elongin-C
- pKapp_HU_not_filtered (SNX27_PDZ [4]): 4.672
- pKapp_significant_binders_HU (SNX27_PDZ [4]): 4.672
- BI_HU (SNX27_PDZ [4]): 0.3189
- FC_HU (log2 fold change) (SNX27_PDZ [4]): -0.5541
- Ratio_HU (SNX27_PDZ [4]): 0.6811
- FC_AP (log2 fold change) (SNX27_PDZ [5]): -2.345
- Ratio_AP (SNX27_PDZ [5]): 0.1968

Molecule: MACROH2A1
- Ratio_HU (SNX27_PDZ [6]; nHU-MS, SNX27/MBP, total Jurkat extract, sheet "SNX27&Jurkat"): 0.6592
- BI_HU (SNX27_PDZ [6]; nHU-MS, SNX27 bait vs MBP control, total Jurkat extract, sheet "SNX27&Jurkat"): 0.3408
- pKapp_HU_not_filtered (SNX27_PDZ [6]; nHU-MS, SNX27 bait, total Jurkat extract, not filtered for significance): 4.715
- FC_HU (SNX27_PDZ [6]; nHU-MS, SNX27 vs MBP control, total Jurkat extract, sheet "SNX27&Jurkat"): -0.6013
- Ratio_AP (SNX27_PDZ [7]; AP-MS control pull-down, SNX27/MBP, total Jurkat extract): 19.7749
- FC_AP (SNX27_PDZ [7]; AP-MS control pull-down, SNX27 vs MBP, total Jurkat extract): 4.3056
- BINDER_AP (SNX27_PDZ [7]; AP-MS control pull-down, total Jurkat extract, BINDS / DOES NOT BIND): BINDS

Molecule: SNX1: component of the SNX-BAR complex
- pKapp (full-length SNX27): 5.47

Molecule: TXNDC12: Thioredoxin domain-containing protein 12 OS=Homo sapiens
- BI_HU (SNX27_PDZ [6]; Jurkat, series 1, n = 6): 0.2712
- FC_HU (log2 fold change) (SNX27_PDZ [6]; Jurkat, series 1, n = 6): -0.4564
- Ratio_HU (SNX27_PDZ [6]; Jurkat, series 1, n = 6): 0.7288
- pKapp_significant_binders_HU (SNX27_PDZ [6]; apparent, Eq. 2, Jurkat, series 1, significant binders (1 σ, P < 0.05)): 4.572
- FC_AP (log2 fold change) (SNX27_PDZ [7]; [8]): -0.5204
- Ratio_AP (SNX27_PDZ [7]; [8]): 0.6972

Molecule: VPS26B: component of the retromer complex
- pKapp (full-length SNX27): 5.23

Molecule: VTN: Vitronectin
- pKapp_HU_not_filtered (SNX27_PDZ [4]): 4.715
- pKapp_significant_binders_HU (SNX27_PDZ [4]): 4.715
- BI_HU (SNX27_PDZ [4]): 0.3408
- FC_HU (log2 fold change) (SNX27_PDZ [4]): -0.6012
- Ratio_HU (SNX27_PDZ [4]): 0.6592
- FC_AP (log2 fold change) (SNX27_PDZ [5]): 0.6536
- Ratio_AP (SNX27_PDZ [5]): 1.573

Source: paper PMC9770967, “Native holdup (nHU) to measure binding affinities from cell extracts” (Science Advances, 2022)
